# Source: PubChem BioAssay AID256 (DTP/NCI, 2004)
# Where “and” joins values, the source holds several entries; their conditions need not be identical. Equal values may be shown once. Inconclusive results and toxic doses are left out.
# Test system: CD2F1 mice, L1210 leukemia ip, survival T/C
# Experiment: NCI In Vivo Anticancer Drug Screen. Data for tumor model L1210 Leukemia (intraperitoneal) in CD2F1 (CDF1) mice
# Conditions: higher = longer survival
# Outline: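 Each value reflects a quotient of treated over vehicle control outcomes in mice with a transplanted tumor.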
# [1] = endpoint: mean survival time, dose: 100.0 mg/kg/injection, schedule: Q01DX001 (ip), vehicle: saline with Tween-80
# [2] = endpoint: mean survival time, dose: 200.0 mg/kg/injection, schedule: Q01DX001 (ip), vehicle: saline with Tween-80
# [3] = endpoint: mean survival time, dose: 400.0 mg/kg/injection, schedule: Q01DX001 (ip), vehicle: saline with Tween-80
# [4] = endpoint: mean survival time, dose: 100.0 mg/kg/injection, schedule: Q01DX009 (ip), vehicle: saline with Tween-80
# [5] = endpoint: mean survival time, dose: 100.0 mg/kg/injection, schedule: Q04DX003 (ip), vehicle: saline with Tween-80
# [6] = endpoint: mean survival time, dose: 200.0 mg/kg/injection, schedule: Q01DX009 (ip), vehicle: saline with Tween-80
# [7] = endpoint: mean survival time, dose: 200.0 mg/kg/injection, schedule: Q04DX003 (ip), vehicle: saline with Tween-80
# [8] = endpoint: mean survival time, dose: 400.0 mg/kg/injection, schedule: Q01DX009 (ip), vehicle: saline with Tween-80
# [9] = endpoint: mean survival time, dose: 400.0 mg/kg/injection, schedule: Q04DX003 (ip), vehicle: saline with Tween-80
# [10] = endpoint: mean survival time, dose: 37.5 mg/kg/injection, schedule: Q01DX009 (ip), vehicle: saline
# [11] = endpoint: mean survival time, dose: 75.0 mg/kg/injection, schedule: Q01DX009 (ip), vehicle: saline
# [12] = endpoint: mean survival time, dose: 18.8 mg/kg/injection, schedule: Q01DX009 (ip), vehicle: saline
# [13] = endpoint: mean survival time, dose: 18.8 mg/kg/injection, schedule: Q04DX003 (ip), vehicle: saline
# [14] = endpoint: mean survival time, dose: 37.5 mg/kg/injection, schedule: Q04DX003 (ip), vehicle: saline
# [15] = endpoint: mean survival time, dose: 75.0 mg/kg/injection, schedule: Q04DX003 (ip), vehicle: saline
# [16] = endpoint: mean survival time, dose: 100.0 mg/kg/injection, schedule: Q04DX002 (ip), vehicle: saline with Tween-80
# [17] = endpoint: mean survival time, dose: 200.0 mg/kg/injection, schedule: Q04DX002 (ip), vehicle: saline with Tween-80
# [18] = endpoint: mean survival time, dose: 400.0 mg/kg/injection, schedule: Q04DX002 (ip), vehicle: saline with Tween-80
# [19] = endpoint: mean survival time, dose: 25.0 mg/kg/injection, schedule: Q04DX003 (ip), vehicle: saline
# [20] = endpoint: mean survival time, dose: 50.0 mg/kg/injection, schedule: Q04DX003 (ip), vehicle: saline
# [21] = endpoint: mean survival time, dose: 100.0 mg/kg/injection, schedule: Q04DX003 (ip), vehicle: saline
structure (smiles),measurement,setting,value
Cc1nc(N)[nH]c(=O)c1CCCN(c1ccccc1)S(=O)(=O)c1ccc(N)cc1,T/C,[1],101 % of control
same,T/C,[2],89 % of control
same,T/C,[3],89 % of control
Nc1ccccc1Sc1ccncc1[N+](=O)[O-],T/C,[4],96 % of control
same,T/C,[5],90 % of control
same,T/C,[6],100 % of control
same,T/C,[7],95 % of control
same,T/C,[8],101 % of control
same,T/C,[9],97 % of control
Nc1csc(N)n1,T/C,[10],98 % of control
same,T/C,[11],98 % of control
same,T/C,"endpoint: mean survival time, dose: 150.0 mg/kg/injection, schedule: Q01DX009 (ip), vehicle: saline",98 % of control
Cc1ccc([N+](=O)[O-])cc1O,T/C,"endpoint: mean survival time, dose: 25.0 mg/kg/injection, schedule: Q01DX009 (ip), vehicle: saline",97 % of control
same,T/C,"endpoint: mean survival time, dose: 50.0 mg/kg/injection, schedule: Q01DX009 (ip), vehicle: saline",106 % of control
same,T/C,"endpoint: mean survival time, dose: 100.0 mg/kg/injection, schedule: Q01DX009 (ip), vehicle: saline",100 % of control
CN(C)/C=C1\NC(=S)NC1=O,T/C,[1],95 % of control
same,T/C,[2],91 % of control
same,T/C,[3],91 % of control
NC(N)=N/N=C/c1cc(Cl)cc(Cl)c1O,T/C,[12],108 % of control
same,T/C,[13],106 % of control
same,T/C,[10],109 % of control
same,T/C,[14],112 % of control
same,T/C,[11],94 % of control
same,T/C,[15],114 % of control
CCCC(=O)Nc1ccccc1,T/C,[1],96 % of control
same,T/C,[4],102 % of control
same,T/C,[2],95 % of control
same,T/C,[6],102 % of control
same,T/C,[3],98 % of control
same,T/C,[8],112 % of control
COc1c(C)c2c(c(O)c1C/C=N\O)C(=O)OC2,T/C,[16],100 % of control
same,T/C,[17],100 % of control
same,T/C,[18],100 % of control
O=C(NCCO)c1cc2ccccc2o1,T/C,[1],93 % of control
same,T/C,[2],98 % of control
same,T/C,[3],90 % of control
N#CC(Cl)(Cl)C(N)=O,T/C,"endpoint: mean survival time, dose: 1.56 mg/kg/injection, schedule: Q04DX002 (ip), vehicle: saline",102 % of control
same,T/C,"endpoint: mean survival time, dose: 3.13 mg/kg/injection, schedule: Q04DX002 (ip), vehicle: saline",92 % of control
same,T/C,"endpoint: mean survival time, dose: 6.25 mg/kg/injection, schedule: Q04DX002 (ip), vehicle: saline",98 % of control
O=C(O)c1ccc(C(=O)O)o1.[NH-]C1CCCCC1[NH-].[Pt+2],T/C,"endpoint: mean survival time, dose: 1.25 mg/kg/injection, schedule: Q04DX003 (ip), vehicle: dextrose",122 % of control and 102 % of control
same,T/C,"endpoint: mean survival time, dose: 2.5 mg/kg/injection, schedule: Q04DX003 (ip), vehicle: dextrose",111 % of control and 112 % of control
same,T/C,"endpoint: mean survival time, dose: 5.0 mg/kg/injection, schedule: Q04DX003 (ip), vehicle: dextrose",117 % of control
same,T/C,"endpoint: mean survival time, dose: 20.0 mg/kg/injection, schedule: Q04DX003 (ip), vehicle: dextrose",183 % of control
same,T/C,"endpoint: mean survival time, dose: 40.0 mg/kg/injection, schedule: Q04DX003 (ip), vehicle: dextrose",94 % of control
CC([NH-])C[NH-].O=C(O)C(O)C(O)C(O)C(O)CO.O=C(O)C(O)C(O)C(O)C(O)CO.[Pt+2] (centres undefined),T/C,[19],113 % of control
same,T/C,[20],120 % of control
same,T/C,[21],123 % of control
O=C1c2c(O)cccc2-c2nn(CCNCCO)c3ccc(NCCNCCO)c1c23,T/C,"endpoint: median survival time, dose: 1.38 mg/kg/injection, schedule: Q01DX009 (ip), vehicle: water",170 % of control
same,T/C,"endpoint: median survival time, dose: 2.75 mg/kg/injection, schedule: Q01DX009 (ip), vehicle: water",240 % of control and 370 % of control
same,T/C,"endpoint: median survival time, dose: 5.5 mg/kg/injection, schedule: Q01DX009 (ip), vehicle: water",222 % of control and 361 % of control
same,T/C,"endpoint: median survival time, dose: 11.0 mg/kg/injection, schedule: Q01DX009 (ip), vehicle: water",101 % of control and 107 % of control
same,T/C,"endpoint: median survival time, dose: 22.0 mg/kg/injection, schedule: Q01DX009 (ip), vehicle: water",87 % of control
CCCCCCCCCCCCOc1ccc(Sc2ccc(OCCCCCCCCCCCC)cc2C)c(C)c1,T/C,[1],86 % of control
CCCCCCCCC(=O)c1c(OC)oc(/C=N/Nc2ccccc2)cc1=O,T/C,"endpoint: mean survival time, dose: 4.7 mg/kg/injection, schedule: Q01DX009 (ip), vehicle: Klucel (hydroxypropylcellulose) (HPC)",103 % of control
same,T/C,"endpoint: mean survival time, dose: 9.38 mg/kg/injection, schedule: Q01DX009 (ip), vehicle: Klucel (hydroxypropylcellulose) (HPC)",103 % of control
same,T/C,"endpoint: mean survival time, dose: 18.75 mg/kg/injection, schedule: Q01DX009 (ip), vehicle: Klucel (hydroxypropylcellulose) (HPC)",103 % of control
same,T/C,"endpoint: mean survival time, dose: 37.5 mg/kg/injection, schedule: Q01DX009 (ip), vehicle: Klucel (hydroxypropylcellulose) (HPC)",98 % of control
same,T/C,"endpoint: mean survival time, dose: 75.0 mg/kg/injection, schedule: Q01DX009 (ip), vehicle: Klucel (hydroxypropylcellulose) (HPC)",92 % of control
O=[As](c1ccccc1Br)(c1ccccc1Br)c1ccccc1Br,T/C,[20],101 % of control
same,T/C,[21],100 % of control
same,T/C,"endpoint: mean survival time, dose: 200.0 mg/kg/injection, schedule: Q04DX003 (ip), vehicle: saline",95 % of control
Cc1cc2nc3ccc(=[N+](C)C)cc-3sc2cc1N,T/C,[19],109 % of control
same,T/C,[20],102 % of control
NC(N)=NCC(=O)O,T/C,[5],94 % of control
same,T/C,[7],102 % of control
same,T/C,[9],98 % of control
COc1ccc2ccccc2c1NC(C)=O,T/C,"endpoint: mean survival time, dose: 100.0 mg/kg/injection, schedule: Q01DX001 (ip), vehicle: saline",102 % of control
same,T/C,"endpoint: mean survival time, dose: 200.0 mg/kg/injection, schedule: Q01DX001 (ip), vehicle: saline",101 % of control
same,T/C,"endpoint: mean survival time, dose: 400.0 mg/kg/injection, schedule: Q01DX001 (ip), vehicle: saline",101 % of control
COC1=N/C=C/C=C\C/C=C/C1,T/C,"endpoint: median survival time, dose: 50.0 mg/kg/injection, schedule: Q04DX002 (ip), vehicle: saline with Tween-80",111 % of control
same,T/C,"endpoint: median survival time, dose: 100.0 mg/kg/injection, schedule: Q04DX002 (ip), vehicle: saline with Tween-80",88 % of control
same,T/C,"endpoint: median survival time, dose: 200.0 mg/kg/injection, schedule: Q04DX002 (ip), vehicle: saline with Tween-80",100 % of control
same,T/C,"endpoint: median survival time, dose: 400.0 mg/kg/injection, schedule: Q04DX002 (ip), vehicle: saline with Tween-80",88 % of control
CCCC[n+]1ccccc1Cc1ccccc1,T/C,[19],101 % of control
CC(C)OC(=O)CC#N,T/C,[5],96 % of control
same,T/C,[7],105 % of control
same,T/C,[9],96 % of control
CCOC1CC(C)C=CO1 (centres undefined),T/C,"endpoint: mean survival time, dose: 100.0 mg/kg/injection, schedule: Q01DX001 (ip), vehicle: saline + alcohol",108 % of control
same,T/C,"endpoint: mean survival time, dose: 200.0 mg/kg/injection, schedule: Q01DX001 (ip), vehicle: saline + alcohol",104 % of control
same,T/C,"endpoint: mean survival time, dose: 400.0 mg/kg/injection, schedule: Q01DX001 (ip), vehicle: saline + alcohol",96 % of control
COc1ccc(NC(=O)Oc2ccc3ccccc3c2)cc1,T/C,[16],87 % of control
same,T/C,[17],93 % of control
same,T/C,[18],93 % of control
c1ccc2nc(-c3cc4ccccc4s3)ccc2c1,T/C,[4],103 % of control
same,T/C,[5],107 % of control
same,T/C,[6],100 % of control
same,T/C,[7],101 % of control
same,T/C,[8],97 % of control
same,T/C,[9],96 % of control
Clc1ccccc1CCCBr,T/C,[4],96 % of control
same,T/C,[5],92 % of control
same,T/C,[6],104 % of control
same,T/C,[7],97 % of control
same,T/C,[8],106 % of control
same,T/C,[9],88 % of control
C=C(C)C1CCC2(C(=O)OC)CCC3(C)C(CCC4C5(C)CCC(=O)C(C)(C)C5CCC43C)C12 (centres undefined),T/C,"endpoint: mean survival time, dose: 100.0 mg/kg/injection, schedule: Q01DX001 (ip), vehicle: Klucel (hydroxypropylcellulose) (HPC)",96 % of control
same,T/C,"endpoint: mean survival time, dose: 200.0 mg/kg/injection, schedule: Q01DX001 (ip), vehicle: Klucel (hydroxypropylcellulose) (HPC)",91 % of control
same,T/C,"endpoint: mean survival time, dose: 400.0 mg/kg/injection, schedule: Q01DX001 (ip), vehicle: Klucel (hydroxypropylcellulose) (HPC)",94 % of control
CN1CCC(O)(O)C(Br)C1 (centres undefined),T/C,[12],98 % of control
same,T/C,[13],102 % of control
same,T/C,[10],100 % of control
same,T/C,[14],106 % of control
same,T/C,"endpoint: mean survival time, dose: 75.0 mg/kg/injection, schedule: Q01DX001 (ip), vehicle: saline",102 % of control
same,T/C,[11],88 % of control
same,T/C,[15],100 % of control
COc1ccc(NC(=O)Nc2ccc([N+](=O)[O-])cc2OC)c(Cl)c1,T/C,"endpoint: mean survival time, dose: 25.0 mg/kg/injection, schedule: Q04DX002 (ip), vehicle: saline with Tween-80",88 % of control and 101 % of control
same,T/C,"endpoint: mean survival time, dose: 50.0 mg/kg/injection, schedule: Q04DX002 (ip), vehicle: saline with Tween-80",95 % of control and 103 % of control
same,T/C,[1],94 % of control
same,T/C,[4],88 % of control and 95 % of control
same,T/C,[16],95 % of control
same,T/C,[5],97 % of control
same,T/C,[2],101 % of control
same,T/C,[6],88 % of control and 97 % of control
same,T/C,[17],93 % of control
same,T/C,[7],95 % of control
same,T/C,[3],86 % of control and 91 % of control
same,T/C,[8],90 % of control and 100 % of control
same,T/C,[18],98 % of control
same,T/C,[9],101 % of control
